Activity calls are given as the source filed them.
Key:
[1] = molecular target: Kappa-type opioid receptor (Homo sapiens, UniProt P41145); assay: kappa opioid receptor antagonism potency – cell-based, fluorescence, dose response, late-stage follow-up (AID 652032); format: functional
[2] = molecular target: T1, Streptokinase A (Streptococcus pyogenes serotype M1, UniProt P10520); assay: viability-normalized secreted streptokinase activity reduction – plasminogen activation absorbance, OD405, dose response (AID 1914); format: functional, Streptococcus pyogenes M1 GAS;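 also: secreted streptokinase activity via plasminogen activation per viability signal from cell pellet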
T1 sequence (P10520 whole entry): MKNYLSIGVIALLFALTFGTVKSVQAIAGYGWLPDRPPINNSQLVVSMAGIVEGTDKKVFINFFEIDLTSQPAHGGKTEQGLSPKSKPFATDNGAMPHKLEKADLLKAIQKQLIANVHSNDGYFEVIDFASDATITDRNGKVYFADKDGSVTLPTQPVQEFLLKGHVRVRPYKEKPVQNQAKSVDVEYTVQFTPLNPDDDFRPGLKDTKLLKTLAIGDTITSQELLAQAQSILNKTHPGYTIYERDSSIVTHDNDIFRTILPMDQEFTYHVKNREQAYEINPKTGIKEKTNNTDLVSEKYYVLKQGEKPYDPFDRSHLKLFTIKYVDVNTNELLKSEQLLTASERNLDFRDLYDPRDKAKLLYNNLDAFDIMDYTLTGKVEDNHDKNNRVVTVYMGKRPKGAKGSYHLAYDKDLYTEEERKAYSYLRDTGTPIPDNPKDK

[3] = molecular target: Beta-lactamase (Pseudomonas aeruginosa, UniProt Q79MP6);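 also: biochemical dose-response test of metallo-beta-lactamase enzyme inhibition, read out by epi-absorbance; purified recombinant IMP-1 metallo-beta-lactamase with nitrocefin as substrate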
Beta-lactamase (Pseudomonas aeruginosa, UniProt Q79MP6), sequence (Q79MP6 whole entry): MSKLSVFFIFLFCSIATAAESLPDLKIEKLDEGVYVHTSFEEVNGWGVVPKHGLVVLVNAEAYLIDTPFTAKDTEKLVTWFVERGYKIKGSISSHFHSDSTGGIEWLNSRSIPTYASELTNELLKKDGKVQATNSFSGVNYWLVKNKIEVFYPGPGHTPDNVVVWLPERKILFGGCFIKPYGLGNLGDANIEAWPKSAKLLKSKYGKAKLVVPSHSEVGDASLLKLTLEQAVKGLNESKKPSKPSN

[4] = test system: Streptococcus sp. 'group A'; assay: Streptococcus pyogenes SK(-)GAS viability under kanamycin – luminescence, BacTiterGlo, confirmation, counter-screen for streptokinase expression inhibitor project, dose response (AID 1900); format: functional, organism-based
[5] = molecular target: Voltage-dependent T-type calcium channel subunit alpha-1H (Homo sapiens, UniProt O95180); format: functional;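 also: channel activity triggered by adding a high calcium stimulation buffer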
Voltage-dependent T-type calcium channel subunit alpha-1H, sequence (O95180 whole entry): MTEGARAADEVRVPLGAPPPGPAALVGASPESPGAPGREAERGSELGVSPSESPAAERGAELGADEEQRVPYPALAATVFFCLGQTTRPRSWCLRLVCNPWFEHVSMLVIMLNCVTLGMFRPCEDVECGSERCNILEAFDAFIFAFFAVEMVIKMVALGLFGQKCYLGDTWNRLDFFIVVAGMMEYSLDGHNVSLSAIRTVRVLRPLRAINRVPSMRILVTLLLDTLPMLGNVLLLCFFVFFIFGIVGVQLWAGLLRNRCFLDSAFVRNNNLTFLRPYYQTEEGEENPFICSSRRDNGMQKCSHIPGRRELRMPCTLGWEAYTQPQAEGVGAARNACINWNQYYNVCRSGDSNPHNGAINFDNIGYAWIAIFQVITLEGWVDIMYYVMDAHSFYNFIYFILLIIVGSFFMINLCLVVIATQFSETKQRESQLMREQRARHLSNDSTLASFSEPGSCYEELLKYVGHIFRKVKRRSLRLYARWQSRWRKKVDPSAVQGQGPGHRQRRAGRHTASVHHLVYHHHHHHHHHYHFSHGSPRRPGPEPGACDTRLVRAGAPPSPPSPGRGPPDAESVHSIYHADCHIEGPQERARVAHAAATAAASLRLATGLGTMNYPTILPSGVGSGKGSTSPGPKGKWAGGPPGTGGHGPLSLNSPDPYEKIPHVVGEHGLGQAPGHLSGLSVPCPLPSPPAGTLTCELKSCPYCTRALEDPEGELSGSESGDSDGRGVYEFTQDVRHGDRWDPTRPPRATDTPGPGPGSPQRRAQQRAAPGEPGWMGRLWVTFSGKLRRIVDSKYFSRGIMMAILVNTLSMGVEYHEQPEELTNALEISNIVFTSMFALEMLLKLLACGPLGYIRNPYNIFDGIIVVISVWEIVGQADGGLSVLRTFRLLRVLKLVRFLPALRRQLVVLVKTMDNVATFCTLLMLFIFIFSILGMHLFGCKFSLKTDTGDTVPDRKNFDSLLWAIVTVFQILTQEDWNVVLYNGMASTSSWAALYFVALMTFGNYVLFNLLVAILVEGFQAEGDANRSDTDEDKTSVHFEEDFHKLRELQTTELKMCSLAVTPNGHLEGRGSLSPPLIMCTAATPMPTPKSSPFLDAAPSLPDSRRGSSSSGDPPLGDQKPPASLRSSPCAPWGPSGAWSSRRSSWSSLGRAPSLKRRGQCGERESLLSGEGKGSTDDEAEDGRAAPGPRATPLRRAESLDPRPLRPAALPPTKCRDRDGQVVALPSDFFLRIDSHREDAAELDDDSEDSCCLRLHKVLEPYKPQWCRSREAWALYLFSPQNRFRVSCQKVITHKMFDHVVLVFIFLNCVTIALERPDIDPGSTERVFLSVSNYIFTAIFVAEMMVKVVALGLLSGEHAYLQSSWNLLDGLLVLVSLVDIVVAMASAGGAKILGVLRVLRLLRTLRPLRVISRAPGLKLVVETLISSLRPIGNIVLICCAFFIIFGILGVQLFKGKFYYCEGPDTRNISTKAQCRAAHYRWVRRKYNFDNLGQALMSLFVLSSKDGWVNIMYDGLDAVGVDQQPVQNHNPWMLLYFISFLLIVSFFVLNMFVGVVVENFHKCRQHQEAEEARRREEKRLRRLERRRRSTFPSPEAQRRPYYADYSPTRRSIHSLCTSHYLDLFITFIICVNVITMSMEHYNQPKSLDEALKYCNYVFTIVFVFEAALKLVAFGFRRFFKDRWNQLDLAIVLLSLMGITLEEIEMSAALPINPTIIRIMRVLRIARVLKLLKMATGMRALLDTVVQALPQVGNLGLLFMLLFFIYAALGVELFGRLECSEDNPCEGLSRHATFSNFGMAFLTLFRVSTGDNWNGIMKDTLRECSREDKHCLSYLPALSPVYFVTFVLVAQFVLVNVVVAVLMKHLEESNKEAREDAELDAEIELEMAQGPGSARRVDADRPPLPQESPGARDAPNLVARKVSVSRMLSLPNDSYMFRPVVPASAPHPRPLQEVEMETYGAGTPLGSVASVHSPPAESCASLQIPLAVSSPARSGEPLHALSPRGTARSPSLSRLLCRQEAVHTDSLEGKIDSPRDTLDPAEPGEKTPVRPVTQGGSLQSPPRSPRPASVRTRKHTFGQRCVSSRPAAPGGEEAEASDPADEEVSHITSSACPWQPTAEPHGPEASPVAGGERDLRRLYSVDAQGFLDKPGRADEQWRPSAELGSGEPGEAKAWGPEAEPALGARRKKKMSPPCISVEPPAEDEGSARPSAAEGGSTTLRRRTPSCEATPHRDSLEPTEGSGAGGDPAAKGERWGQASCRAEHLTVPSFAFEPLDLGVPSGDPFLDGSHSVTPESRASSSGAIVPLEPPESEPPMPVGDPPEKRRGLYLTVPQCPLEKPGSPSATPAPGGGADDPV

[6] = molecular target: T2, Beta Lactamase (Pseudomonas aeruginosa, UniProt Q932Y6); assay: BLA reporter interference, concentration series – BLA reporter cells, FRET fluorescence, artefact control for TLR9-MyD88 binding inhibitor project, dose response (AID 588341); format: cell-based;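 also: cell based assay in CHO-K1 cells stably expressing beta-lactamase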
T2 sequence (Q932Y6 whole entry): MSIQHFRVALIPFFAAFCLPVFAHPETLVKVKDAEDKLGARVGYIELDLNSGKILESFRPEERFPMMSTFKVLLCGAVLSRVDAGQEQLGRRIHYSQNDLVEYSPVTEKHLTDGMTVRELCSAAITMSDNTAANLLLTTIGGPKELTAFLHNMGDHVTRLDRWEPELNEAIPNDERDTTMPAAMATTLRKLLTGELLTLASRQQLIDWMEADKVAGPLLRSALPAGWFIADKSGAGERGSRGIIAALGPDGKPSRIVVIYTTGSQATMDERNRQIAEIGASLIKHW

[7] = molecular target: UDP-galactopyranose mutase (Mycobacterium tuberculosis, UniProt P9WIQ1); assay: Inhibitors of Mycobacterium tuberculosis UDP-galactopyranose mutase (UGM) enzyme Measured in Biochemical System Using Plate Reader - 2105-02_Inhibitor_Dose_CherryPick_Activity. [Related pubchem assays (depositor defined):AID504439]
UDP-galactopyranose mutase, sequence (P9WIQ1 whole entry): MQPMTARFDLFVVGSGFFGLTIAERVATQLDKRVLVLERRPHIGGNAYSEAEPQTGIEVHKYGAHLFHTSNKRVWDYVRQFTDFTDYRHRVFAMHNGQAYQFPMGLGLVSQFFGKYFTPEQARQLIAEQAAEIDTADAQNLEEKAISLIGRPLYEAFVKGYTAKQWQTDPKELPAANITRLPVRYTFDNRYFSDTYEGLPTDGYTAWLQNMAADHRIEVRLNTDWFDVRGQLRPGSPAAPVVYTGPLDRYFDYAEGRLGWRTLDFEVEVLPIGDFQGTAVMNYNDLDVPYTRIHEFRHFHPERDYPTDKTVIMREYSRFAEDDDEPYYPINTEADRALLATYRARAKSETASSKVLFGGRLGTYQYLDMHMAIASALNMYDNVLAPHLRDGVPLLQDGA

[8] = molecular target: T3, ORF 73 (Human herpesvirus 8, UniProt O40947); assay: KSHV LANA DNA-binding disruption – biochemical, fluorescence polarization, cherry-picked samples, dose response (AID 504725); parameters: species or system Human gammaherpesvirus 8;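 also: fluorescence polarization of a labeled DNA duplex reporting LANA DNA binding; potency is for inhibitors that block LANA binding to the DNA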
T3 sequence (O40947 whole entry): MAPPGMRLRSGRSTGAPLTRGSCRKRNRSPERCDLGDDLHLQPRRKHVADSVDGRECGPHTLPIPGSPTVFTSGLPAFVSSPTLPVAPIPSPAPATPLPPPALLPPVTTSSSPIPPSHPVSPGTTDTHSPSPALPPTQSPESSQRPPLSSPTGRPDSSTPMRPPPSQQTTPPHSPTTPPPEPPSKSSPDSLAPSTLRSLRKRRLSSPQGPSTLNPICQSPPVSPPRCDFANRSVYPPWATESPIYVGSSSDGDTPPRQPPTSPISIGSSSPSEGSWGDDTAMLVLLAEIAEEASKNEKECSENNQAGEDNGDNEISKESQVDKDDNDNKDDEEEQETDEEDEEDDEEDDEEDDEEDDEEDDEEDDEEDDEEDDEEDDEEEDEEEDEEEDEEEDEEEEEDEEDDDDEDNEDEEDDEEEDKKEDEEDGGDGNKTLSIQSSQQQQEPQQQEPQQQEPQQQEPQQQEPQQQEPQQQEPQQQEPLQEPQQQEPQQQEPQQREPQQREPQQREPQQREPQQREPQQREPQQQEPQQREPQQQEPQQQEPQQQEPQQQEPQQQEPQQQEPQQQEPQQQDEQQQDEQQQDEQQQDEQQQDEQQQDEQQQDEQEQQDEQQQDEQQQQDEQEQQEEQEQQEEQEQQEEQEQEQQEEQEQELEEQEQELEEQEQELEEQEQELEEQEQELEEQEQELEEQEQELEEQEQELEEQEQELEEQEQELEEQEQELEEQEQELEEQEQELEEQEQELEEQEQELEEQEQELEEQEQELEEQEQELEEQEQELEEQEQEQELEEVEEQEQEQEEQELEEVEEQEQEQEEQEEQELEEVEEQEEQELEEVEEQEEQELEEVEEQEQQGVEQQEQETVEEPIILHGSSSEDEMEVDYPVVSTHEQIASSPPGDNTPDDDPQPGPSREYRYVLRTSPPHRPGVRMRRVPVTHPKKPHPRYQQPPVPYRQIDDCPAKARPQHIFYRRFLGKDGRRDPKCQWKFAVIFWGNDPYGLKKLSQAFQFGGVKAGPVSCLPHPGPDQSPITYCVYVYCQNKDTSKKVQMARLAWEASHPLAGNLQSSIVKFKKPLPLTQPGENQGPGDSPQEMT

[9] = test system: CHO; assay: CHO cell viability loss, potency – luminescence, cytotoxicity control for TLR9-MyD88 binding inhibitor project, dose response (AID 588339); format: functional, cell-based, hamster; conditions: Cricetulus griseus;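 also: CHO cells stably coexpressing TLR9 and MyD88 fusions from primary screen; compound exposure lasted 48 hours before viability readout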
[10] = test system: Streptococcus; assay: GAS UMAA2166 growth inhibition – luminescence, BacTiterGlo, counter-screen for streptokinase expression inhibitor project, dose response (AID 1915); format: functional, organism-based;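 also: potency for reduction of bacterial viability or growth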
[11] = molecular target: Beta-lactamase (Salmonella choleraesuis (strain SC-B67), UniProt Q5J463)
Beta-lactamase (Salmonella choleraesuis (strain SC-B67), UniProt Q5J463), sequence (Q5J463 whole entry): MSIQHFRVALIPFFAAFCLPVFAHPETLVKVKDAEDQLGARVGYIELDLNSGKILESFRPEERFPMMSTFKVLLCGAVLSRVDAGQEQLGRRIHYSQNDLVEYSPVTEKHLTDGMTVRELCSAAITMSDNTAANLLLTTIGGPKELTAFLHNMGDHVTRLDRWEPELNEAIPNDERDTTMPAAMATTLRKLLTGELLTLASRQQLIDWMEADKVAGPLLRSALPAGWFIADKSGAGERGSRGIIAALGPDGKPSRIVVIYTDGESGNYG

[12] = molecular target: T2, Beta Lactamase
[13] = anti-trypanosomal activity in BESM host cells – imaging, CA-I/72 strain, bovine embryo skeletal muscle, dry powder, dose response (AID 651885); format: functional, cell-based
[14] = test system: HeLa; assay: viability loss in HeLa cells – cell-based, ATP luminescence, cherry-pick samples, cytotoxicity control, dose response (AID 687004); format: functional; conditions: Homo sapiens

Kappa-type opioid receptor, sequence (P41145 whole entry): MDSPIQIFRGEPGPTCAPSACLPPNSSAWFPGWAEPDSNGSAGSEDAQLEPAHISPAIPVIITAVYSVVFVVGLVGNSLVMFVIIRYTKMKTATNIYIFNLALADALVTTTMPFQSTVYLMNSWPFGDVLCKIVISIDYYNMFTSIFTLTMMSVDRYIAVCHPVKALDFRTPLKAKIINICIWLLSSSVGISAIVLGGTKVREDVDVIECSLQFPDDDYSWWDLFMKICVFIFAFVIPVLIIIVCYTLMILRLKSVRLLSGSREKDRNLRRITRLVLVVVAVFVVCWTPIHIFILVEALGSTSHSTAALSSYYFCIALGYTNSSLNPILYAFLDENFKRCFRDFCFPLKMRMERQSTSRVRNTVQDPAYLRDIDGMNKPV

Q: With `COC(=O)c1cc(Br)cnc1N1CCC(NC2CCCCC2)C(C)C1` (centres undefined) as the molecule, how does the IC50 [1] read?
A: 0.075 µM (active)

Q: For `CN1C(=O)/C(=N\CCc2ccccc2)c2c3ccccc3c(O)c3cccc1c23`, which EC50 [2] is on record?
A: > 150 µM (not active)

Q: And the IC50 [3]?
A: 11.5 µM (inactive)

Q: And the EC50 [4]?
A: 11.3 µM (active)

Q: What about the EC50 [5] of the same molecule?
A: 1.6 µM (active)

Q: And the IC50 [6]?
A: 5.98 µM (active)

Q: And the AC50 [7]?
A: 0.73 µM (active)

Q: What about the AC50 [8] of the same molecule?
A: 0.902 µM (active)

Q: What about the IC50 [9] of the same molecule?
A: > 49.8 µM (inactive)

Q: And the EC50 [10]?
A: > 150 µM (not active)

Q: And the IC50 [11]?
A: 2.19 µM (active)

Q: What about the IC50 [12] of the same molecule?
A: 9.24 µM (active)

Q: For `CC(C)N(C)C(=O)c1cccc(NC(=O)c2ccncc2)c1OCCCN(C)Cc1ccc(Cl)cc1`, which IC50 [13] is on record?
A: 0.385 µM (active)

Q: For `CC(C)NC(=O)Nc1ccc2c(c1)CC(=O)N([C@@H](C)CO)C[C@@H](C)[C@@H](CN(C)Cc1ccc(Oc3ccccc3)cc1)O2`, which AC50 [14] is on record?
A: 38.8 µM (active)

— ChEMBL document CHEMBL1201862, “PubChem BioAssay data set” (2004)
